Measured values as given in PubChem BioAssay AID248 (DTP/NCI, 2004).
Inconclusive results and toxic doses are left out. Rule as the data show it: active = T/C of 150% or more; inactive = T/C below 125%.

System: L1210 leukemia ip in BDF1 mice, survival T/C
Assay: NCI In Vivo Anticancer Drug Screen. Data for tumor model L1210 Leukemia (intraperitoneal) in B6D2F1 (BDF1) mice
Conditions: endpoint: mean survival time, higher = longer survival
Method in brief: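 Survival endpoint. Drug-treated group vs vehicle group, expressed as T divided by C. Tumor passaged by transplantation.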

Measured: T/C

Oc1ccccc1-c1nc2cc(Cl)ccc2o1
inactive: dose: 100.0 mg/kg/injection, schedule: Q04DX002 (ip), vehicle: Klucel (hydroxypropylcellulose) (HPC) 97 % of control | dose: 200.0 mg/kg/injection, schedule: Q04DX002 (ip), vehicle: Klucel (hydroxypropylcellulose) (HPC) 97 % of control | dose: 400.0 mg/kg/injection, schedule: Q04DX002 (ip), vehicle: Klucel (hydroxypropylcellulose) (HPC) 101 % of control

CCCCCC(=O)Nc1cccc(OC(=O)NC)c1
inactive: dose: 100.0 mg/kg/injection, schedule: Q01DX009 (ip), vehicle: saline with Tween-80 98 % of control | dose: 200.0 mg/kg/injection, schedule: Q01DX009 (ip), vehicle: saline with Tween-80 97 % of control | dose: 400.0 mg/kg/injection, schedule: Q01DX009 (ip), vehicle: saline with Tween-80 89 % of control

CCOC(=O)C(C(=O)OCC)c1c[n+]([O-])c2ccccc2c1[N+](=O)[O-]
inactive: dose: 100.0 mg/kg/injection, schedule: Q01DX001 (ip), vehicle: carboxymethylcellulose (CMC) 93 % of control | dose: 200.0 mg/kg/injection, schedule: Q01DX001 (ip), vehicle: carboxymethylcellulose (CMC) 98 % of control | dose: 400.0 mg/kg/injection, schedule: Q01DX001 (ip), vehicle: carboxymethylcellulose (CMC) 98 % of control
